# Laboratory results taken from patent publication US9809623B2, “α4β7 peptide monomer and dimer antagonists” (Protagonist Therapeutics, Inc., priority 2014, dated 2017).
# pIC50: −log10 of the molar value. Numbered stars: 1 amine (or outer) side, 2 acyl side, 3 side chain; on linkers, the order of the positions; unused ones are H or OH. Bridge positions count the residues as written; N and C are the ends. Square brackets hold non-standard residues; d marks the D form. Peptide text beside a SMILES is read from it. I, II: the chains in the order shown. 2Nal = N[C@@H](Cc1ccc2ccccc2c1)C(=O)O; Diglycolyl = O=C(COCC(=O)[*:2])[*:1]; NMeR = CN[C@@H](CCCNC(=N)N)C(=O)O; hPhe = N[C@@H](CCc1ccccc1)C(=O)O; β3hE = N[C@@H](CCC(=O)O)CC(=O)O; NMeK = CN[C@@H](CCCCN)C(=O)O; Pen = CC(C)(S)[C@H](N)C(=O)O; dNMeK = CN[C@H](CCCCN)C(=O)O; Dab = NCC[C@H](N)C(=O)O; Dap = NC[C@H](N)C(=O)O
# Tests used:
# [1] = Simulated Intestinal Fluid (SIF) Stability Assay; assay type: in vitro ADME, porcine; conditions: pig, simulated intestinal fluid (SIF) with 1% porcine pancreatin, pH 6.5, Table 3-B; > means experiment was stopped at that time and half life was not reached; read-out: Stabilty SIF t1/2
# Procedure: Studies were carried out in simulated intestinal fluid (SIF) to evaluate intestinal stability of the peptide molecules of the instant invention. To prepare the SIF reagent, blank FASSIF was prepared by dissolving 0.348 g NaOH, 3.954 g sodium phosphate monobasic monohydrate and 6.186 g NaCl in a final volume of 1 liter water (final pH=6.5). To this solution, 24 g porcine pancreatin (Sigma catalog P7545) was added and stirred for 30 minutes (final pancreatin concentration is 2.4%). The solution was filtered through a cheese cloth and a No. 1 Whatman filter, and 10 ml aliquots were stored at −70° C. To run the reaction, a 10 ml aliquot was thawed at 37° C., and 125 ul aliquots were removed and mixed with an equal volume of blank FASSIF. The peptide stock solution (10 mM in 100% DMSO) was diluted 75-fold in blank FASSIF. A 50 μl aliquot of the diluted peptide was combined with 125 μl pancreatin (2.4%) and 125 μl blank FASSIF to yield final concentrations of 1% pancreatin and 22 μM peptide. The reactions were incubated at 37° C., and at various time points 50 μl aliquots were removed and added to 200 μl of quench solution containing 50% acetonitrile, 50% methanol, 5% formic acid, and 1 μg/ml internal standard. The quenched samples were centrifuged at 10,000 rpm for 10 minutes, and the supernatants were analyzed by LCMS/MS. The percent remaining at each time point was calculated based on the peak area response ratio of test to compound to internal standard. Half-lives were calculated by fitting to a first-order exponential decay equation using GraphPad.
# α4β7 = α4β7 (Homo sapiens, UniProt P13612+P26010); assay: α4β7-MAdCAM Cell Adhesion Assay (RPMI 8866 human cells); assay type: cell-based; design: host or cells: RPMI 8866 human B lymphoblastoid cells; conditions: Table 3-B, Potency (α4β7); range classes; read-out: α4β7 cell (Hu) IC50
# Outline: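 Adhesion read-out: MTT absorbance at 570 nm minus no-cell wells, after three washes. Plates coated with rh MAdCAM-1/Fc received peptide dilutions plus 200,000 RPMI 8866 cells in Mn2+ (1 mM)-supplemented DMEM, 0.1% BSA, HEPES pH 7, incubated 30-45 min, 37 °C.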
# α4β7, sequence (P13612 34-1032): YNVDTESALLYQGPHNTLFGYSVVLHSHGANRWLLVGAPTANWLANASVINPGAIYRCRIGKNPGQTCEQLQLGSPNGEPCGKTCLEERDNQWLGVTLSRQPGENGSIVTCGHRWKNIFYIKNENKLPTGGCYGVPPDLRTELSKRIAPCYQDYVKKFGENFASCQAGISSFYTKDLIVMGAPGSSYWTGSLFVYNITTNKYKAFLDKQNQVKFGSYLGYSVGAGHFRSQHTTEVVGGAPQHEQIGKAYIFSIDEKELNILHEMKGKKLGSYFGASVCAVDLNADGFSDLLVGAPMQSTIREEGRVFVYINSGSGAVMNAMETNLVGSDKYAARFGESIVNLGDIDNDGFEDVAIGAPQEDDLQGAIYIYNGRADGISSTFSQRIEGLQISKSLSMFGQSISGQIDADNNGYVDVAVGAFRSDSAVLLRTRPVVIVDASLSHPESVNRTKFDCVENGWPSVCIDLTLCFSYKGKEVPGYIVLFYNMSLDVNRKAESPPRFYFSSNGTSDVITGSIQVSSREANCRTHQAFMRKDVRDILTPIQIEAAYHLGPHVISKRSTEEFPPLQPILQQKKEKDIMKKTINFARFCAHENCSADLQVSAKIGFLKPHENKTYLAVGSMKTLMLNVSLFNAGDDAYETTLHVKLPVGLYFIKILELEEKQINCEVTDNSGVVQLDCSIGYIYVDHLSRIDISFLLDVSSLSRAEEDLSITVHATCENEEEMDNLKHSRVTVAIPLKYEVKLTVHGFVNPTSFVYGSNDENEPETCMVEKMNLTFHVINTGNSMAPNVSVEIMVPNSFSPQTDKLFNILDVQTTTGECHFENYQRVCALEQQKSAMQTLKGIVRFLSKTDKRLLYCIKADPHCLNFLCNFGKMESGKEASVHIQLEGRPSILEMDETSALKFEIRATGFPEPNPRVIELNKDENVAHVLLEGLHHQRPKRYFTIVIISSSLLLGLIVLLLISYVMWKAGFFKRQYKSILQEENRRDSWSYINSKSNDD
# α4β7, sequence (P26010 20-798): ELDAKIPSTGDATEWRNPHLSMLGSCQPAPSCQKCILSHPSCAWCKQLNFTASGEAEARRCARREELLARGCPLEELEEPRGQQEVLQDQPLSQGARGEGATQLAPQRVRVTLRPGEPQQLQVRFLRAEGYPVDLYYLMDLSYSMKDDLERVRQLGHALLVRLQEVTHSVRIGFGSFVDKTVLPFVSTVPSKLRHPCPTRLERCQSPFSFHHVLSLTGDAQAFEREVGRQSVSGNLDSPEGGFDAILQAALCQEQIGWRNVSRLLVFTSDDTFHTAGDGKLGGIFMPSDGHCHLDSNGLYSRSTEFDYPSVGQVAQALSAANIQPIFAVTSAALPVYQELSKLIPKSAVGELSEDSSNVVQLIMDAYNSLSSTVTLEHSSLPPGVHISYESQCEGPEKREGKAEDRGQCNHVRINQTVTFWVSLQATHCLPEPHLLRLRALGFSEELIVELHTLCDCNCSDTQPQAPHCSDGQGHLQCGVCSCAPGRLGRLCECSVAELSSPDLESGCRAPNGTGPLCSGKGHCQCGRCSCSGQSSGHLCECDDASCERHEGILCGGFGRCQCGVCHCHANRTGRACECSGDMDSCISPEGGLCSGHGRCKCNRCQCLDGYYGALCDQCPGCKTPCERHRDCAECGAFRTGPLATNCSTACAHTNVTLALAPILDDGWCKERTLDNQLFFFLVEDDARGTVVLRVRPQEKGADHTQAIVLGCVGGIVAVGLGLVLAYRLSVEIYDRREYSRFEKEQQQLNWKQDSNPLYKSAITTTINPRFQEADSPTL
SMILES,half-life at 22 μM [1],pIC50 (α4β7)
"CC(=O)N[C@@H]1C(=O)N(C)[C@@H](CCCNC(=N)N)C(=O)N[C@@H](CO)C(=O)N[C@@H](CC(=O)O)C(=O)N[C@@H]([C@@H](C)O)C(=O)N[C@@H](CC(C)C)C(=O)N[C@H](C(=O)N[C@@H](Cc2c[nH]c3ccccc23)C(=O)N[C@@H](CCC(=O)O)CC(=O)N[C@H](CCCCNC(=O)COCC(=O)NCCCC[C@@H](NC(=O)C[C@H](CCC(=O)O)NC(=O)[C@H](Cc2c[nH]c3ccccc23)NC(=O)[C@H]2NC(=O)[C@H](CC(C)C)NC(=O)[C@H]([C@@H](C)O)NC(=O)[C@H](CC(=O)O)NC(=O)[C@H](CO)NC(=O)[C@H](CCCNC(=N)N)N(C)C(=O)[C@@H](NC(C)=O)C(C)(C)SSC2(C)C)C(N)=O)C(N)=O)C(C)(C)SSC1(C)C [compound 1] (I: Ac-[Pen][NMeR]SDTL[Pen]W[β3hE][dK]-NH2 / II: Ac-[Pen][NMeR]SDTL[Pen]W[β3hE][dK]-NH2; disulfide I:1-I:7, II:1-II:7; linker I:10-II:10 via Diglycolyl)",> 3 h,7.00 to 7.30
"CC(=O)N[C@@H]1C(=O)N(C)[C@@H](CCCNC(=N)N)C(=O)N[C@@H](CO)C(=O)N[C@@H](CC(=O)O)C(=O)N[C@@H]([C@@H](C)O)C(=O)N[C@@H](CC(C)C)C(=O)N[C@H](C(=O)N[C@H](Cc2ccccc2)C(=O)N[C@H](CCC(=O)O)C(=O)N[C@H](CCCCNC(=O)COCC(=O)NCCCC[C@@H](NC(=O)[C@@H](CCC(=O)O)NC(=O)[C@@H](Cc2ccccc2)NC(=O)[C@H]2NC(=O)[C@H](CC(C)C)NC(=O)[C@H]([C@@H](C)O)NC(=O)[C@H](CC(=O)O)NC(=O)[C@H](CO)NC(=O)[C@H](CCCNC(=N)N)N(C)C(=O)[C@@H](NC(C)=O)C(C)(C)SSC2(C)C)C(N)=O)C(N)=O)C(C)(C)SSC1(C)C [compound 2] (I: Ac-[Pen][NMeR]SDTL[Pen][dF][dE][dK]-NH2 / II: Ac-[Pen][NMeR]SDTL[Pen][dF][dE][dK]-NH2; disulfide I:1-I:7, II:1-II:7; linker I:10-II:10 via Diglycolyl)",> 3 h,6.30 to 7.00
"CC(=O)N[C@H](CCCCN)C(=O)N[C@H]1CSSC[C@@H](C(=O)N[C@@H](Cc2c[nH]c3ccccc23)C(=O)N[C@H](CCCCNC(=O)COCC(=O)NCCCC[C@@H](NC(=O)[C@H](Cc2c[nH]c3ccccc23)NC(=O)[C@@H]2CSSC[C@H](NC(=O)[C@@H](CCCCN)NC(C)=O)C(=O)N(C)[C@@H](CCCNC(=N)N)C(=O)N[C@@H](CO)C(=O)N[C@@H](CC(=O)O)C(=O)N[C@@H]([C@@H](C)O)C(=O)N[C@@H](CC(C)C)C(=O)N2)C(N)=O)C(N)=O)NC(=O)[C@H](CC(C)C)NC(=O)[C@H]([C@@H](C)O)NC(=O)[C@H](CC(=O)O)NC(=O)[C@H](CO)NC(=O)[C@H](CCCNC(=N)N)N(C)C1=O [compound 4] (I: Ac-[dK]C[NMeR]SDTLCW[dK]-NH2 / II: Ac-[dK]C[NMeR]SDTLCW[dK]-NH2; disulfide I:2-I:8, II:2-II:8; linker I:10-II:10 via Diglycolyl)",< 0.333 h,7.60 to 8.00
"CC(=O)N[C@@H]1C(=O)N(C)[C@@H](CCCNC(=N)N)C(=O)N[C@@H](CO)C(=O)N[C@@H](CC(=O)O)C(=O)N[C@@H]([C@@H](C)O)C(=O)N[C@@H](CC(C)C)C(=O)N[C@H](C(=O)N[C@@H](Cc2ccc3ccccc3c2)C(=O)N[C@H](Cc2ccc(O)cc2)C(=O)N[C@H](CCCCNC(=O)COCC(=O)NCCCC[C@@H](NC(=O)[C@@H](Cc2ccc(O)cc2)NC(=O)[C@H](Cc2ccc3ccccc3c2)NC(=O)[C@H]2NC(=O)[C@H](CC(C)C)NC(=O)[C@H]([C@@H](C)O)NC(=O)[C@H](CC(=O)O)NC(=O)[C@H](CO)NC(=O)[C@H](CCCNC(=N)N)N(C)C(=O)[C@@H](NC(C)=O)C(C)(C)SSC2(C)C)C(N)=O)C(N)=O)C(C)(C)SSC1(C)C [compound 27] (I: Ac-[Pen][NMeR]SDTL[Pen][2Nal][dY][dK]-NH2 / II: Ac-[Pen][NMeR]SDTL[Pen][2Nal][dY][dK]-NH2; disulfide I:1-I:7, II:1-II:7; linker I:10-II:10 via Diglycolyl)",> 3 h,7.30 to 7.60
"CC(=O)N[C@@H]1C(=O)N(C)[C@@H](CCCNC(=N)N)C(=O)N[C@@H](CO)C(=O)N[C@@H](CC(=O)O)C(=O)N[C@@H]([C@@H](C)O)C(=O)N[C@@H](CC(C)C)C(=O)N[C@H](C(=O)N[C@@H](Cc2ccc3ccccc3c2)C(=O)N[C@H](CCC(=O)O)C(=O)N(C)[C@H](CCCCNC(=O)COCC(=O)NCCCC[C@H](C(N)=O)N(C)C(=O)[C@@H](CCC(=O)O)NC(=O)[C@H](Cc2ccc3ccccc3c2)NC(=O)[C@H]2NC(=O)[C@H](CC(C)C)NC(=O)[C@H]([C@@H](C)O)NC(=O)[C@H](CC(=O)O)NC(=O)[C@H](CO)NC(=O)[C@H](CCCNC(=N)N)N(C)C(=O)[C@@H](NC(C)=O)C(C)(C)SSC2(C)C)C(N)=O)C(C)(C)SSC1(C)C [compound 39] (I: Ac-[Pen][NMeR]SDTL[Pen][2Nal][dE][dNMeK]-NH2 / II: Ac-[Pen][NMeR]SDTL[Pen][2Nal][dE][dNMeK]-NH2; disulfide I:1-I:7, II:1-II:7; linker I:10-II:10 via Diglycolyl)",> 3 h,7.60 to 8.00
"CC(=O)N[C@@H]1C(=O)N(C)[C@@H](CCCNC(=N)N)C(=O)N[C@@H](CO)C(=O)N[C@@H](CC(=O)O)C(=O)N[C@@H]([C@@H](C)O)C(=O)N[C@@H](CC(C)C)C(=O)N[C@H](C(=O)N[C@@H](CCc2ccccc2)C(=O)N[C@@H](CCC(=O)O)C(=O)N[C@H](CCCCNC(=O)COCC(=O)NCCCC[C@@H](NC(=O)[C@H](CCC(=O)O)NC(=O)[C@H](CCc2ccccc2)NC(=O)[C@H]2NC(=O)[C@H](CC(C)C)NC(=O)[C@H]([C@@H](C)O)NC(=O)[C@H](CC(=O)O)NC(=O)[C@H](CO)NC(=O)[C@H](CCCNC(=N)N)N(C)C(=O)[C@@H](NC(C)=O)C(C)(C)SSC2(C)C)C(N)=O)C(N)=O)C(C)(C)SSC1(C)C [compound 45] (I: Ac-[Pen][NMeR]SDTL[Pen][hPhe]E[dK]-NH2 / II: Ac-[Pen][NMeR]SDTL[Pen][hPhe]E[dK]-NH2; disulfide I:1-I:7, II:1-II:7; linker I:10-II:10 via Diglycolyl)",0.617 h,7.30 to 7.60
CC(=O)N[C@@H]1C(=O)N(C)[C@@H](CCCNC(=N)N)C(=O)N[C@@H](CO)C(=O)N[C@@H](CC(=O)O)C(=O)N[C@@H]([C@@H](C)O)C(=O)N[C@@H](CC(C)C)C(=O)N[C@H](C(=O)N[C@@H](Cc2c[nH]c3ccccc23)C(=O)N[C@H](CCC(=O)O)C(=O)N[C@@H](CN)C(N)=O)C(C)(C)SSC1(C)C [compound 55] (Ac-[Pen][NMeR]SDTL[Pen]W[dE][Dap]-NH2; disulfide 1-7),> 3 h,6.30 to 7.00
CC(=O)N[C@@H]1C(=O)N(C)[C@@H](CCCNC(=N)N)C(=O)N[C@@H](CO)C(=O)N[C@@H](CC(=O)O)C(=O)N[C@@H]([C@@H](C)O)C(=O)N[C@@H](CC(C)C)C(=O)N[C@H](C(=O)N[C@@H](Cc2c[nH]c3ccccc23)C(=O)N[C@H](CCC(=O)O)C(=O)N[C@@H](CCN)C(N)=O)C(C)(C)SSC1(C)C [compound 56] (Ac-[Pen][NMeR]SDTL[Pen]W[dE][Dab]-NH2; disulfide 1-7),> 3 h,6.00 to 6.30
"CC(=O)N[C@@H]1C(=O)N(C)[C@@H](CCCNC(=N)N)C(=O)N[C@@H](CO)C(=O)N[C@@H](CC(=O)O)C(=O)N[C@@H]([C@@H](C)O)C(=O)N[C@@H](CC(C)C)C(=O)N[C@H](C(=O)N[C@@H](Cc2c[nH]c3ccccc23)C(=O)N(C)[C@@H](CCCCNC(=O)COCC(=O)NCCCC[C@@H](C(N)=O)N(C)C(=O)[C@H](Cc2c[nH]c3ccccc23)NC(=O)[C@H]2NC(=O)[C@H](CC(C)C)NC(=O)[C@H]([C@@H](C)O)NC(=O)[C@H](CC(=O)O)NC(=O)[C@H](CO)NC(=O)[C@H](CCCNC(=N)N)N(C)C(=O)[C@@H](NC(C)=O)C(C)(C)SSC2(C)C)C(N)=O)C(C)(C)SSC1(C)C [compound 77] (I: Ac-[Pen][NMeR]SDTL[Pen]W[NMeK]-NH2 / II: Ac-[Pen][NMeR]SDTL[Pen]W[NMeK]-NH2; disulfide I:1-I:7, II:1-II:7; linker I:9-II:9 via Diglycolyl)",> 3 h,6.30 to 7.00
